The IC50 is the concentration needed to halve the response being measured.

Our source for the IC50 values is PubChem BioAssay AID1117324 (Cheminformatics & Chemogenomics Research Group (CCRG), …, 2015).

Active and inactive are the calls of the source. How the calls were made is not given here. *1 amine or outer side, *2 acyl side, *3 side chain or, on linkers, in order; H or OH if unused. Where a SMILES comes first, the peptide text is derived from it. Bridges are numbered along the chain shown (N, C = ends). Roman numbers before positions name the chains, in order. [ ]: non-standard residue; d: D form. Actinocin(9to1) = Cc1c2oc3c(C)ccc(C(=O)[*:1])c3nc-2c(C(=O)[*:2])c(N)c1=O; NMeV = CN[C@H](C(=O)O)C(C)C; Sar = CNCC(=O)O Bounds are passed on as bounds.

The experiment relates to VEGF-stimulated ADSC/ECFC co-culture, nuclear area imaging. As to the kind of experiment: nuclear area loss in endothelial-stromal co-culture, dose response, cell-based, VEGF stimulation, IC50 (AID 1117324).

Turning to `COc1ccccc1N1CCN(CC(O)COc2cc(OC)c(OC)c(OC)c2)CC1` (centres undefined), the IC50 was > 10 µM (inactive).

In the case of `NC(=O)C1(N2CCCCC2)CCN(CCCN2c3ccccc3CCc3ccc(Cl)cc32)CC1`, the IC50 is > 10 µM (inactive).

Consider `CCCCCCCCCCCCCCCC[N+](C)(C)Cc1ccccc1`, for which the IC50 was > 10 µM (inactive).

On to `CN(C)C(=S)SSC(=S)N(C)C`, for which the IC50 is > 10 µM (inactive).

`N/C(=N\N=C\c1ccc(Cl)cc1)N/N=C/c1ccc(Cl)cc1`: the IC50 is > 10 µM (inactive).

Take `Clc1ccc(C(Cn2ccnc2)OCc2ccc(Sc3ccccc3)cc2)c(Cl)c1` (centres undefined): the IC50 was > 10 µM (inactive).

For the compound `COc1cc([C@@H]2c3cc4c(cc3[C@H](O)[C@H]3COC(=O)[C@H]23)OCO4)cc(OC)c1OC`, the IC50 is > 10 µM (inactive).

In the case of `CCCCC(=O)O[C@H]1CC[C@H]2[C@@H]3CCc4cc(O)ccc4[C@@H]3CC[C@]12C`, the IC50 was 8.3 µM (inactive).

Consider `CCN(CC)CCOc1ccc(/C(=C(\Cl)c2ccccc2)c2ccccc2)cc1`, for which the IC50 was > 10 µM (inactive).

With `COc1cccc(CCc2ccccc2OCC(CN(C)C)OC(=O)CCC(=O)O)c1` (centres undefined), the IC50 is > 10 µM (inactive).

Turning to `COC(=O)C1=C(C)NC(C)=C(C(=O)OCCN2CCN(C(c3ccccc3)c3ccccc3)CC2)C1c1cccc([N+](=O)[O-])c1` (centres undefined), the IC50 was > 10 µM (inactive).

Turning to `CCCCN(CCCC)CCC(O)c1cc2c(Cl)cc(Cl)cc2c2cc(C(F)(F)F)ccc12` (centres undefined), the IC50 was > 10 µM (inactive).

On to `O=C(CBr)Nc1ccc(Cl)cc1C(=O)c1ccccc1F`, for which the IC50 is > 10 µM (inactive).

`CCN[C@@H](C)Cc1cccc(C(F)(F)F)c1`: the IC50 was > 10 µM (inactive).

Regarding `Oc1cc(Cl)ccc1Oc1ccc(Cl)cc1Cl`, the IC50 is 8.1 µM (inactive).

On to `O=c1[nH]c(=O)n([C@H]2C[C@H](O)[C@@H](CO)O2)cc1F`, for which the IC50 is > 10 µM (inactive).

Turning to `CCCSc1ccc2nc(NC(=O)OC)[nH]c2c1`, the IC50 is > 10 µM (inactive).

As to `CCOc1ccc2nc3cc(N)ccc3c(N)c2c1`, the IC50 is > 10 µM (inactive).

Take `C=CC(C)(O)CCC=C(C)CCC=C(C)C` (centres undefined): the IC50 is > 10 µM (inactive).

As for `NC1=NCC2c3ccccc3Cc3ccccc3N12` (centres undefined), the IC50 is > 10 µM (inactive).

As for `Cc1c2oc3c(C)ccc(C(=O)N[C@@H]4C(=O)N[C@H](C(C)C)C(=O)N5CCC[C@H]5C(=O)N(C)CC(=O)N(C)[C@@H](C(C)C)C(=O)O[C@@H]4C)c3nc-2c(C(=O)N[C@@H]2C(=O)N[C@H](C(C)C)C(=O)N3CCC[C@H]3C(=O)N(C)CC(=O)N(C)[C@@H](C(C)C)C(=O)O[C@@H]2C)c(N)c1=O` (I: T[dV]P[Sar][NMeV] / II: T[dV]P[Sar][NMeV]; ester I:1-I:C, II:1-II:C; linker I:N-II:N via Actinocin(9to1)), the IC50 was 0.0403 µM.

Turning to `CCN(CC)C(=O)/C(C#N)=C/c1cc(O)c(O)c([N+](=O)[O-])c1`, the IC50 is > 10 µM (inactive).

`O=[N+]([O-])C(Br)(CO)CO`: the IC50 was > 10 µM (inactive).

Take `Oc1ccc(Cl)cc1Sc1cc(Cl)ccc1O`: the IC50 is 8.69 µM (inactive).

Turning to `Cc1[nH]cnc1C[C@H]1CCc2c(C)c3ccccc3n2C1=O`, the IC50 is > 10 µM (inactive).

For `Oc1c(Cl)cc(Cl)c2cccnc12`, the IC50 was > 10 µM (inactive).

Consider `c1ccc2c(c1)Sc1ccccc1N2CC1CN2CCC1CC2` (centres undefined), for which the IC50 is > 10 µM (inactive).

For the compound `S=C=Nc1ccc(N=C=S)cc1`, the IC50 is > 10 µM (inactive).

Consider `O=C(CCBr)N1CCN(C(=O)CCBr)CC1`, for which the IC50 is > 10 µM (inactive).

`CCCCc1ccc2nc(NC(=O)OC)[nH]c2c1`: the IC50 was > 10 µM (inactive).

Take `CCCCCCCC[N+](C)(C)CCCCCCCC`: the IC50 is 7.43 µM (inactive).

With `COP(=S)(OC)Oc1ccc(Sc2ccc(OP(=S)(OC)OC)cc2)cc1`, the IC50 is > 10 µM (inactive).

As for `ClC1=C(Cl)C2(Cl)C(CBr)CC1(Cl)C2(Cl)Cl` (centres undefined), the IC50 is 9.97 µM (inactive).

Turning to `Nc1nc(=O)n([C@@H]2O[C@H](CO)[C@@H](O)[C@@H]2F)cc1I`, the IC50 was > 10 µM (inactive).

`C#C[C@]1(O)CC[C@H]2[C@@H]3CCc4cc(O)ccc4[C@H]3CC[C@@]21C`: the IC50 is > 10 µM (inactive).

Take `CCc1c2c(nc3ccc(OC(=O)N4CCC(N5CCCCC5)CC4)cc13)-c1cc3c(c(=O)n1C2)COC(=O)[C@]3(O)CC`: the IC50 was 8.12 µM (inactive).

On to `COc1ccc2cc3[n+](cc2c1OC)CCc1cc2c(cc1-3)OCO2`, for which the IC50 was > 10 µM (inactive).

Take `O=C(Nc1ccc(S(=O)(=O)N2CCOCC2)cc1)c1cc(Cl)ccc1NS(=O)(=O)c1ccc(Cl)s1`: the IC50 is > 10 µM (inactive).

Take `CCOP(=S)(OCC)SCSc1ccc(Cl)cc1`: the IC50 was > 10 µM (inactive).

`O=C(c1ccc(F)cc1)C1CCN(CCn2c(=O)[nH]c3ccccc3c2=O)CC1`: the IC50 was > 10 µM (inactive).

Take `CNS(=O)(=O)CCc1ccc2[nH]cc(C3CCN(C)CC3)c2c1`: the IC50 was > 10 µM (inactive).

Consider `Oc1ccc(/C=C/c2cc(O)cc(O)c2)cc1`, for which the IC50 was > 10 µM (inactive).

Consider `CCCCCCC[N+](CC)(CC)CCCCc1ccc(Cl)cc1`, for which the IC50 is > 10 µM (inactive).

In the case of `CCCCCCCCCCCCCCCC(=O)OCC=C(C)C=CC=C(C)C=CC1=C(C)CCCC1(C)C`, the IC50 was > 10 µM (inactive).

On to `COc1cc([C@@H]2c3cc4c(cc3[C@@H](O[C@@H]3O[C@@H]5CO[C@@H](C)O[C@@H]5[C@H](O)[C@@H]3O)[C@H]3COC(=O)[C@H]23)OCO4)cc(OC)c1O`, for which the IC50 is 0.967 µM.

Consider `CCC=CCC=CCC=CCCCCCCCC(=O)O`, for which the IC50 is > 10 µM (inactive).

In the case of `O=c1[nH]cc(F)c(=O)[nH]1`, the IC50 is > 10 µM (inactive).

On to `CN1CCC[C@@H]1CCO[C@](C)(c1ccccc1)c1ccc(Cl)cc1`, for which the IC50 was > 10 µM (inactive).

Regarding `CC[C@@]1(O)C(=O)OCc2c1cc1n(c2=O)Cc2cc3c(CN(C)C)c(O)ccc3nc2-1`, the IC50 was 0.025 µM.

Consider `CC(C)(C)C(=O)OCOP(=O)(COCCn1cnc2c(N)ncnc21)OCOC(=O)C(C)(C)C`, for which the IC50 was > 10 µM (inactive).

As to `CCCCCCCCCCCCCC[N+](C)(C)C`, the IC50 is 6.68 µM (inactive).

In the case of `[O-][n+]1ccccc1SSc1cccc[n+]1[O-]`, the 50% inhibitory concentration (IC50) was 1.79 µM.

`Oc1c(Br)cc(Br)c2cccnc12`: the IC50 is > 10 µM (inactive).

Turning to `CCCCCCCCCCCCCCNCCO`, the IC50 is 9.19 µM (inactive).

For the compound `CCCCCCCCCCCCCCCCCCNC(=O)OC1CCN(C(=O)OC[C@H](COC(=O)N(Cc2cccc[n+]2CC)C(=O)c2ccccc2OC)OC)CC1`, the IC50 is > 10 µM (inactive).

As to `CCN(CC)C(=O)c1cccnc1`, the IC50 was > 10 µM (inactive).

Take `CC(C)Cn1cnc2c1c(=O)n(C)c(=O)n2C`: the IC50 was > 10 µM (inactive).

Take `CCCCc1oc2ccc(NS(C)(=O)=O)cc2c1C(=O)c1ccc(OCCCN(CCCC)CCCC)cc1`: the IC50 was 7.56 µM (inactive).

With `CC1(C)[C@H](C=C(Cl)Cl)[C@@H]1C(=O)OCc1c(F)c(F)cc(F)c1F`, the IC50 is > 10 µM (inactive).

Consider `CC1CCC(C(C)C)C(OC(=O)c2ccccc2O)C1` (centres undefined), for which the IC50 was > 10 µM (inactive).

As for `CCOC(=O)C1=C[C@]2(CC)CCCN3CCc4c(n1c1ccccc41)[C@@H]32`, the IC50 is > 10 µM (inactive).

Take `CN1CCCC(CC2c3ccccc3Sc3ccccc32)C1` (centres undefined): the IC50 is > 10 µM (inactive).

As to `CCCCCCCC/C=C\CCCCCCCCN`, the IC50 is 9.13 µM (inactive).

For the compound `CC(=O)[C@]1(O)Cc2c(O)c3c(c(O)c2[C@@H](O[C@H]2C[C@H](N)[C@H](O)[C@H](C)O2)C1)C(=O)c1ccccc1C3=O`, the IC50 is 0.538 µM.

As to `CCc1oc2ccccc2c1C(=O)c1cc(I)c(O)c(I)c1`, the IC50 was > 10 µM (inactive).

Take `O=C1c2c(O)cccc2Cc2cccc(O)c21`: the IC50 was > 10 µM (inactive).

As for `CO[C@@H]1[C@@H](OC)[C@H](C)[C@@](O)(CC(=O)O)O[C@H]1[C@H](C)[C@H]1O[C@@]2(CC[C@@](C)([C@H]3CC[C@@](C)([C@@H]4O[C@@H]([C@H]5O[C@](C)(O)[C@H](C)C[C@@H]5C)C[C@@H]4OC4C[C@H](OC)[C@@H](OC)[C@H](C)O4)O3)O2)C[C@H](O)[C@H]1C` (some centres undefined), the IC50 was 2.57 µM.

Consider `CC(=O)Oc1ccc(C2(c3ccc(OC(C)=O)cc3)C(=O)Nc3ccccc32)cc1`, for which the IC50 is > 10 µM (inactive).

On to `CC[C@]1(O)C[C@@H]2CN(CCc3c([nH]c4ccccc34)[C@@](C(=O)OC)(c3cc4c(cc3OC)N(C)[C@H]3[C@@](O)(C(=O)OC)[C@H](OC(C)=O)[C@]5(CC)C=CCN6CC[C@]43[C@@H]65)C2)C1`, for which the IC50 was > 10 µM (inactive).

Consider `CCCCCCCCCCCCCCCCCCOP(=O)([O-])OC1CC[N+](C)(C)CC1`, for which the IC50 was > 10 µM (inactive).

`Cc1ccc2nc(N)[nH]c(=O)c2c1Sc1ccncc1`: the IC50 is > 10 µM (inactive).

For the compound `COC(=O)N[C@H](C(=O)N[C@@H](Cc1ccccc1)[C@@H](O)CN(Cc1ccc(-c2ccccn2)cc1)NC(=O)[C@@H](NC(=O)OC)C(C)(C)C)C(C)(C)C`, the IC50 was > 10 µM (inactive).

In the case of `COc1cc(S(N)(=O)=O)cc(C(=O)O)c1OC`, the IC50 was > 10 µM (inactive).

For the compound `CCOC(=O)c1ccccc1C(=O)OCC`, the IC50 is > 10 µM (inactive).

Take `CCC(C)(C)C(=O)O[C@H]1C[C@@H](C)C=C2C=C[C@H](C)[C@H](CC[C@@H]3C[C@@H](O)CC(=O)O3)[C@H]21`: the IC50 was 5.13 µM (inactive).

Consider `CC(C)=CCC/C(C)=C/CC/C(C)=C/C(=O)OCC(=O)[C@@]1(O)CC[C@H]2[C@@H]3CCC4=CC(=O)C=C[C@]4(C)[C@H]3[C@@H](O)C[C@@]21C`, for which the IC50 is > 10 µM (inactive).

On to `O=c1c(-c2ccccc2)c1-c1ccccc1`, for which the IC50 is 6.75 µM (inactive).

Take `O[C@@H](CNC[C@H](O)[C@H]1CCc2cc(F)ccc2O1)[C@@H]1CCc2cc(F)ccc2O1`: the IC50 was > 10 µM (inactive).

Consider `COc1ccc2cc1Oc1ccc(cc1)C[C@H]1c3c(cc4c(c3Oc3cc5c(cc3OC)CCN(C)[C@@H]5C2)OCO4)CCN1C`, for which the IC50 was > 10 µM (inactive).
